# From US20240254119A1 (THIRD HARMONIC BIO, INC., priority 2022, published 2024)
# pIC50: −log10 of the molar value.
# Tested on: not listed separately
# Assay: Kinetic solubility assay
# Type: physicochemical
# Conditions: kinetic solubility, 50 mM PB (pH 7.4), shaken 24 hours at RT
# In short: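 Test compounds from 10 mM DMSO stock were diluted in 50 mM phosphate buffer, pH 7.4, and shaken for 24 h at RT. After PTFE filtration and centrifugation, filtrate concentration was quantified by UPLC-UV/HPLC-UV against a standard curve.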
row,SMILES,Solubility (μM)
1,"Cc1ccc(-c2noc(C(C)NS(C)(=O)=O)n2)cc1NC(=O)c1cnc2ccccn12 (single isomer, unassigned) [Compound I-237]",** (a solubility greater than 10 μM and less than or equal to 50 μM)
2,"Cc1ccc(-c2noc(C(C)NS(C)(=O)=O)n2)cc1NC(=O)c1cnc2ccccn12 (single isomer, unassigned) [Compound I-238]",* (a solubility greater than 50 μM)
3,Cc1ccc(-c2noc([C@H]3C[C@@H]3F)n2)cc1NC(=O)c1cnc2cc(OC(C)C)ccn12 [Compound I-88],**** (a solubility less than or equal to 2 μM)
4,Cc1ccc(-c2noc(CC(O)C(F)F)n2)cc1NC(=O)c1cnc2ccccn12 (stereo not drawn) [Compound I-114],**** (a solubility less than or equal to 2 μM)
5,Cc1ccc(-c2noc(CC3CC(F)(F)C3)n2)cc1NC(=O)c1cnc2ccccn12 [Compound I-124],**** (a solubility less than or equal to 2 μM)
6,Cc1ccc(-c2noc(CC3CC3(F)F)n2)cc1NC(=O)c1cnc2ccccn12 (stereo not drawn) [Compound I-125],**** (a solubility less than or equal to 2 μM)
7,Cc1nc(-c2ccc(C)c(NC(=O)c3cnc4cc(C(F)F)ccn34)c2)no1 [Compound I-134],**** (a solubility less than or equal to 2 μM)
8,Cc1ccc(-c2noc(C3COC3)n2)cc1NC(=O)c1cnc2ccccn12 [Compound I-138],**** (a solubility less than or equal to 2 μM)
9,Cc1nc(-c2ccc(Cl)c(NC(=O)c3cnc4ccccn34)c2)no1 [Compound I-172],**** (a solubility less than or equal to 2 μM)
10,COC(=O)N1CC(c2nc(-c3ccc(C)c(NC(=O)c4cnn5cc(C#N)ccc45)c3)no2)C1 [Compound I-204],*** (a solubility greater than 2 μM and less than or equal to 10 μM)
11,Cc1nc(-c2ccc(C)c(NC(=O)c3cnc4ccc(N(C)C)cn34)c2)no1 [Compound I-205],**** (a solubility less than or equal to 2 μM)

# Target: T1, BCRP (BCRP-MDCKII monolayer) (Homo sapiens, UniProt Q9UNQ0)
# T1 construct: host or cells: MDCKII (canine kidney) cells
# T1 sequence (Q9UNQ0 1-655): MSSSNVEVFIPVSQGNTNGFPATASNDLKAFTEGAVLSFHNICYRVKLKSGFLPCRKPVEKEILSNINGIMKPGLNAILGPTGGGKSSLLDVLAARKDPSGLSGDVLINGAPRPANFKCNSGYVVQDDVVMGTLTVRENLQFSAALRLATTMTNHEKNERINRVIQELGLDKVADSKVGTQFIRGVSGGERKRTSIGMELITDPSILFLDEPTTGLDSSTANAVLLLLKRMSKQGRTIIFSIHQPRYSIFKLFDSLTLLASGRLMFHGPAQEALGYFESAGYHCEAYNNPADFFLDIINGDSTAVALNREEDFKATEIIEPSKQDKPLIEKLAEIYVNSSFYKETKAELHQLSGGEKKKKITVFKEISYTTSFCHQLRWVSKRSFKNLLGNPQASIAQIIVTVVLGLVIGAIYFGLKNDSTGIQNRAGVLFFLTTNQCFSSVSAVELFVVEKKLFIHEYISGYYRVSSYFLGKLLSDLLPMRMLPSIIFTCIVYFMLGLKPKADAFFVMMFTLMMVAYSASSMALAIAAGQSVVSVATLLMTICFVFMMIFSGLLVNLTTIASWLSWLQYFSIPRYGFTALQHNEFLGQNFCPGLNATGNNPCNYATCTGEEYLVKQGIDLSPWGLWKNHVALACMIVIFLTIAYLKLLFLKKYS
# Assay: MDCKII-BCRP bidirectional transport assay
# Type: in vitro ADME
# Conditions: not given
# In short: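 Bidirectional A→B and B→A transport across PreadyPort BCRP-MDCKII monolayers (days 12–15) was run in duplicate for 120 min at 37° C, 5% CO2 after a 15 min preincubation. Compound levels were measured by LC-MS/MS. Papp and recovery were calculated, with efflux ratio indicating transporter engagement.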
row,SMILES,MDCK-BCRP: Efflux Ratio
1,"Cc1ccc(-c2noc(C(C)NS(C)(=O)=O)n2)cc1NC(=O)c1cnc2ccccn12 (single isomer, unassigned) [Compound I-237]",11.5
2,"Cc1ccc(-c2noc(C(C)NS(C)(=O)=O)n2)cc1NC(=O)c1cnc2ccccn12 (single isomer, unassigned) [Compound I-238]",22.7
3,Cc1ccc(-c2noc([C@H]3C[C@@H]3F)n2)cc1NC(=O)c1cnc2cc(OC(C)C)ccn12 [Compound I-88],0.89
4,Cc1ccc(-c2noc(CC(O)C(F)F)n2)cc1NC(=O)c1cnc2ccccn12 (stereo not drawn) [Compound I-114],8.07
5,Cc1ccc(-c2noc(CC3CC(F)(F)C3)n2)cc1NC(=O)c1cnc2ccccn12 [Compound I-124],1.14
6,Cc1ccc(-c2noc(CC3CC3(F)F)n2)cc1NC(=O)c1cnc2ccccn12 (stereo not drawn) [Compound I-125],1.6
7,Cc1nc(-c2ccc(C)c(NC(=O)c3cnc4cc(C(F)F)ccn34)c2)no1 [Compound I-134],2.12
8,Cc1ccc(-c2noc(C3COC3)n2)cc1NC(=O)c1cnc2ccccn12 [Compound I-138],5.11
9,Cc1nc(-c2ccc(Cl)c(NC(=O)c3cnc4ccccn34)c2)no1 [Compound I-172],0.81
10,COC(=O)N1CC(c2nc(-c3ccc(C)c(NC(=O)c4cnn5cc(C#N)ccc45)c3)no2)C1 [Compound I-204],6.11
11,Cc1nc(-c2ccc(C)c(NC(=O)c3cnc4ccc(N(C)C)cn34)c2)no1 [Compound I-205],1.66

# Same assay, conditions: apical to basolateral
row,SMILES,MDCK-BCRP: Papp A-B
1,"Cc1ccc(-c2noc(C(C)NS(C)(=O)=O)n2)cc1NC(=O)c1cnc2ccccn12 (single isomer, unassigned) [Compound I-237]",1.66 10^−6 cm/s
2,"Cc1ccc(-c2noc(C(C)NS(C)(=O)=O)n2)cc1NC(=O)c1cnc2ccccn12 (single isomer, unassigned) [Compound I-238]",0.92 10^−6 cm/s
3,Cc1ccc(-c2noc([C@H]3C[C@@H]3F)n2)cc1NC(=O)c1cnc2cc(OC(C)C)ccn12 [Compound I-88],29 10^−6 cm/s
4,Cc1ccc(-c2noc(CC(O)C(F)F)n2)cc1NC(=O)c1cnc2ccccn12 (stereo not drawn) [Compound I-114],3.03 10^−6 cm/s
5,Cc1ccc(-c2noc(CC3CC(F)(F)C3)n2)cc1NC(=O)c1cnc2ccccn12 [Compound I-124],9.07 10^−6 cm/s
6,Cc1ccc(-c2noc(CC3CC3(F)F)n2)cc1NC(=O)c1cnc2ccccn12 (stereo not drawn) [Compound I-125],9.07 10^−6 cm/s
7,Cc1nc(-c2ccc(C)c(NC(=O)c3cnc4cc(C(F)F)ccn34)c2)no1 [Compound I-134],7.85 10^−6 cm/s
8,Cc1ccc(-c2noc(C3COC3)n2)cc1NC(=O)c1cnc2ccccn12 [Compound I-138],10.4 10^−6 cm/s
9,Cc1nc(-c2ccc(Cl)c(NC(=O)c3cnc4ccccn34)c2)no1 [Compound I-172],6.02 10^−6 cm/s
10,COC(=O)N1CC(c2nc(-c3ccc(C)c(NC(=O)c4cnn5cc(C#N)ccc45)c3)no2)C1 [Compound I-204],3.27 10^−6 cm/s
11,Cc1nc(-c2ccc(C)c(NC(=O)c3cnc4ccc(N(C)C)cn34)c2)no1 [Compound I-205],23.5 10^−6 cm/s

# Target: T2, wtKIT (Homo sapiens, UniProt P10721)
# T2 construct: 1888289AM in the reaction mixtures
# Assay: Caliper biochemical assay, wtKIT
# Conditions: Table 6, read-out: KIT Biochemical IC50 avg
# In short: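 Enzyme (5.0 nM wtKIT), 1 μM FAM-labelled peptide, 400 μM ATP and 10 mM MnCl2 in HEPES pH 7.5 with 1% DMSO, incubated 3 h at 25° C. EDTA quench; substrate and phosphoproduct separated by microfluidic electrophoresis and quantified by fluorescence.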
# T2 sequence (P10721 26-976): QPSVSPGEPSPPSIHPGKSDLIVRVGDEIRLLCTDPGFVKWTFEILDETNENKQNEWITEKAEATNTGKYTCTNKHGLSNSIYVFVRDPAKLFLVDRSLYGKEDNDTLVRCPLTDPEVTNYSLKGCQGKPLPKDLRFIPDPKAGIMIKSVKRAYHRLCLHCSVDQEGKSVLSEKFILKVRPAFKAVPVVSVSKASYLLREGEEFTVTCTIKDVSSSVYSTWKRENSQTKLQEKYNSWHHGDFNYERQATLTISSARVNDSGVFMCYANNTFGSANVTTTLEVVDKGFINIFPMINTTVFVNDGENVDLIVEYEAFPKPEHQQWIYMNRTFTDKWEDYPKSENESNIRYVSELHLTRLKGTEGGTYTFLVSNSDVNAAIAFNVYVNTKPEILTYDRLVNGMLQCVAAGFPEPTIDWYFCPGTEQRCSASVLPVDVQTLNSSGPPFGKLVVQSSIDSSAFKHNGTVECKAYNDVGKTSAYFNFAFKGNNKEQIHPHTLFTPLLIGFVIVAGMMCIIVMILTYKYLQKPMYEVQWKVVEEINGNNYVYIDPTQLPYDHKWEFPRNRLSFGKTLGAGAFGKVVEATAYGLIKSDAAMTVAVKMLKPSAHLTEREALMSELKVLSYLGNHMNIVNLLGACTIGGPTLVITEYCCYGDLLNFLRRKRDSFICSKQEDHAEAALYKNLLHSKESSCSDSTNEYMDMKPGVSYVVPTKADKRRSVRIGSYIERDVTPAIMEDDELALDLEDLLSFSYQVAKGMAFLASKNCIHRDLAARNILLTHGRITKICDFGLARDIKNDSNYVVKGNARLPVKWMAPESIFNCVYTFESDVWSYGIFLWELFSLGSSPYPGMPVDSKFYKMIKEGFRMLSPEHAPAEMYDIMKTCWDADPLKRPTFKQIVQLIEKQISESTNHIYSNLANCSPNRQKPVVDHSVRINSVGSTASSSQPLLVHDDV
row,SMILES,pIC50
1,"Cc1ccc(-c2noc(C(C)NS(C)(=O)=O)n2)cc1NC(=O)c1cnc2ccccn12 (single isomer, unassigned) [Compound I-237]",6.30 to 7.30
2,"Cc1ccc(-c2noc(C(C)NS(C)(=O)=O)n2)cc1NC(=O)c1cnc2ccccn12 (single isomer, unassigned) [Compound I-238]",≥ 7.30
3,Cc1ccc(-c2noc([C@H]3C[C@@H]3F)n2)cc1NC(=O)c1cnc2cc(OC(C)C)ccn12 [Compound I-88],≥ 7.30
4,Cc1ccc(-c2noc(CC(O)C(F)F)n2)cc1NC(=O)c1cnc2ccccn12 (stereo not drawn) [Compound I-114],≥ 7.30
5,Cc1ccc(-c2noc(CC3CC(F)(F)C3)n2)cc1NC(=O)c1cnc2ccccn12 [Compound I-124],≥ 7.30
6,Cc1ccc(-c2noc(CC3CC3(F)F)n2)cc1NC(=O)c1cnc2ccccn12 (stereo not drawn) [Compound I-125],≥ 7.30
7,Cc1nc(-c2ccc(C)c(NC(=O)c3cnc4cc(C(F)F)ccn34)c2)no1 [Compound I-134],≥ 7.30
8,Cc1ccc(-c2noc(C3COC3)n2)cc1NC(=O)c1cnc2ccccn12 [Compound I-138],≥ 7.30
9,Cc1nc(-c2ccc(Cl)c(NC(=O)c3cnc4ccccn34)c2)no1 [Compound I-172],≥ 7.30
10,COC(=O)N1CC(c2nc(-c3ccc(C)c(NC(=O)c4cnn5cc(C#N)ccc45)c3)no2)C1 [Compound I-204],≥ 7.30
11,Cc1nc(-c2ccc(C)c(NC(=O)c3cnc4ccc(N(C)C)cn34)c2)no1 [Compound I-205],≥ 7.30

# Target: T3, PDGFRα (Homo sapiens, UniProt P16234)
# T3 construct: purchased Millipore 14-467 (lot 26321_ACTI)
# Assay: Caliper biochemical assay, PDGFRα
# Conditions: Table 6
# In short: (§1)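 Kinase, FAM-labelled peptide substrate, ATP and Mn^2+ incubated with compound for 3 h at 25° C, then quenched with EDTA buffer. Substrate and phosphorylated product separated by microfluidic electrophoresis and quantified by fluorescence intensity; no-enzyme wells define 100% inhibition.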
# T3 sequence (P16234 24-1089): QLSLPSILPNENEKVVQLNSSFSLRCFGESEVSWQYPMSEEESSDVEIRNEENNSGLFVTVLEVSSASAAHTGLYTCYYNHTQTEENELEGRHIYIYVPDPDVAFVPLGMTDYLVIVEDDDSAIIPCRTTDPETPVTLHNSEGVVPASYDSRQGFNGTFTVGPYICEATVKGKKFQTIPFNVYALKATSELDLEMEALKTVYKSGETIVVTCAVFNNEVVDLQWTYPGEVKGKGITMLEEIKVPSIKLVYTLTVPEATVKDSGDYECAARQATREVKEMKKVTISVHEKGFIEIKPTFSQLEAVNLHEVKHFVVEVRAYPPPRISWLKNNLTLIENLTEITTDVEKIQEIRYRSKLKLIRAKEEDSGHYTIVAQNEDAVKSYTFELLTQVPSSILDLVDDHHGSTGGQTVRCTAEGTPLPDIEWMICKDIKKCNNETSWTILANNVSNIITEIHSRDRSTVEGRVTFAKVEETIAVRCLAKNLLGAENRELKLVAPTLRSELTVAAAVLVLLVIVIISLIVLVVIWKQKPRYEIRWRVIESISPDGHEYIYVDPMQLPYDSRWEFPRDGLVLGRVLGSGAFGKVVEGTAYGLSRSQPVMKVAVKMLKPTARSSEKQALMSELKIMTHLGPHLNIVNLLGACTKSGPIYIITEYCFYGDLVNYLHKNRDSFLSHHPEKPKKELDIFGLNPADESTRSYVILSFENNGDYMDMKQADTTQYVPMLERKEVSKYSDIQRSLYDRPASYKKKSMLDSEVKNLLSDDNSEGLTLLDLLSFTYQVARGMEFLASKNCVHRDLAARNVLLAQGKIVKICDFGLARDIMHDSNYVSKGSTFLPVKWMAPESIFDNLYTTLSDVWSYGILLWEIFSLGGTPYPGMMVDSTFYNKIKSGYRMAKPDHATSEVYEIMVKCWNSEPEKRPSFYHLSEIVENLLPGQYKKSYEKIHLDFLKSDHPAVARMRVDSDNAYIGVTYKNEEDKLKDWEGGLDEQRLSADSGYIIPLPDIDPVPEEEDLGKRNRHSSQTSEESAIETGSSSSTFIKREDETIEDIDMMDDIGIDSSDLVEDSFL
row,SMILES,pIC50
1,"Cc1ccc(-c2noc(C(C)NS(C)(=O)=O)n2)cc1NC(=O)c1cnc2ccccn12 (single isomer, unassigned) [Compound I-237]",4.52 to 5.30
2,"Cc1ccc(-c2noc(C(C)NS(C)(=O)=O)n2)cc1NC(=O)c1cnc2ccccn12 (single isomer, unassigned) [Compound I-238]",4.52 to 5.30
3,Cc1ccc(-c2noc([C@H]3C[C@@H]3F)n2)cc1NC(=O)c1cnc2cc(OC(C)C)ccn12 [Compound I-88],6.30 to 7.30
4,Cc1ccc(-c2noc(CC(O)C(F)F)n2)cc1NC(=O)c1cnc2ccccn12 (stereo not drawn) [Compound I-114],5.30 to 6.30
5,Cc1ccc(-c2noc(CC3CC(F)(F)C3)n2)cc1NC(=O)c1cnc2ccccn12 [Compound I-124],6.30 to 7.30
6,Cc1ccc(-c2noc(CC3CC3(F)F)n2)cc1NC(=O)c1cnc2ccccn12 (stereo not drawn) [Compound I-125],6.30 to 7.30
7,Cc1nc(-c2ccc(C)c(NC(=O)c3cnc4cc(C(F)F)ccn34)c2)no1 [Compound I-134],5.30 to 6.30
8,Cc1ccc(-c2noc(C3COC3)n2)cc1NC(=O)c1cnc2ccccn12 [Compound I-138],5.30 to 6.30
9,Cc1nc(-c2ccc(Cl)c(NC(=O)c3cnc4ccccn34)c2)no1 [Compound I-172],5.30 to 6.30
10,COC(=O)N1CC(c2nc(-c3ccc(C)c(NC(=O)c4cnn5cc(C#N)ccc45)c3)no2)C1 [Compound I-204],4.52 to 5.30
11,Cc1nc(-c2ccc(C)c(NC(=O)c3cnc4ccc(N(C)C)cn34)c2)no1 [Compound I-205],6.30 to 7.30

# Target: T4, CSF-1R (Homo sapiens, UniProt P07333)
# T4 construct: purchased Invitrogen PV3249 (lot 662393N)
# Assay: Caliper biochemical assay, CSF-1R
# Conditions: Table 6
# In short: as §1
# T4 sequence (P07333 20-972): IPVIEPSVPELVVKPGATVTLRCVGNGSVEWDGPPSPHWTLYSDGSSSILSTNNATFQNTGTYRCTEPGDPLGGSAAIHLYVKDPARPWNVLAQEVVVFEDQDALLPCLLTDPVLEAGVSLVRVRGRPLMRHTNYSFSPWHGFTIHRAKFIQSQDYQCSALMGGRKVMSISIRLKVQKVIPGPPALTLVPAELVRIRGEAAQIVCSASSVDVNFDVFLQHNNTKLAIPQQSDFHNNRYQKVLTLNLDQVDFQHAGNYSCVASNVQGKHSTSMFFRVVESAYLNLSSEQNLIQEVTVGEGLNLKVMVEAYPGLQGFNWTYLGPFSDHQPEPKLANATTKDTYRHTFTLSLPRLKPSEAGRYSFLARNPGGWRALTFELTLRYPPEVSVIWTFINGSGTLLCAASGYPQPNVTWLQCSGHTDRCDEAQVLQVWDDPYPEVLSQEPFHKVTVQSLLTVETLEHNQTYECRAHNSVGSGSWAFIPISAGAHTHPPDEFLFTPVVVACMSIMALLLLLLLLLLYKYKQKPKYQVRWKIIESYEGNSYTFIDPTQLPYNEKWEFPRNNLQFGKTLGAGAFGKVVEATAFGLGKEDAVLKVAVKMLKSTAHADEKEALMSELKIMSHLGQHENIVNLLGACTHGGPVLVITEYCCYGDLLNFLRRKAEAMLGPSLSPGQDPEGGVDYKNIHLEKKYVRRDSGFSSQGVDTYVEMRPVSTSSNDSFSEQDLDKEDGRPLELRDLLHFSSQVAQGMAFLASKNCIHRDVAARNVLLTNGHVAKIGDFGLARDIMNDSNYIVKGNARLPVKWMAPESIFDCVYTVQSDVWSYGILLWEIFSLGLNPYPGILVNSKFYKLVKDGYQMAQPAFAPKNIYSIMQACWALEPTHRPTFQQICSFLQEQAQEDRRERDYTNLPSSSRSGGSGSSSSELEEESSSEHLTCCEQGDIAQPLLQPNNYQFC
row,SMILES,pIC50
1,"Cc1ccc(-c2noc(C(C)NS(C)(=O)=O)n2)cc1NC(=O)c1cnc2ccccn12 (single isomer, unassigned) [Compound I-237]",5.30 to 6.30
2,"Cc1ccc(-c2noc(C(C)NS(C)(=O)=O)n2)cc1NC(=O)c1cnc2ccccn12 (single isomer, unassigned) [Compound I-238]",6.30 to 7.30
3,Cc1ccc(-c2noc([C@H]3C[C@@H]3F)n2)cc1NC(=O)c1cnc2cc(OC(C)C)ccn12 [Compound I-88],≥ 7.30
4,Cc1ccc(-c2noc(CC(O)C(F)F)n2)cc1NC(=O)c1cnc2ccccn12 (stereo not drawn) [Compound I-114],6.30 to 7.30
5,Cc1ccc(-c2noc(CC3CC(F)(F)C3)n2)cc1NC(=O)c1cnc2ccccn12 [Compound I-124],≥ 7.30
6,Cc1ccc(-c2noc(CC3CC3(F)F)n2)cc1NC(=O)c1cnc2ccccn12 (stereo not drawn) [Compound I-125],≥ 7.30
7,Cc1nc(-c2ccc(C)c(NC(=O)c3cnc4cc(C(F)F)ccn34)c2)no1 [Compound I-134],5.30 to 6.30
8,Cc1ccc(-c2noc(C3COC3)n2)cc1NC(=O)c1cnc2ccccn12 [Compound I-138],≥ 7.30
9,Cc1nc(-c2ccc(Cl)c(NC(=O)c3cnc4ccccn34)c2)no1 [Compound I-172],6.30 to 7.30
10,COC(=O)N1CC(c2nc(-c3ccc(C)c(NC(=O)c4cnn5cc(C#N)ccc45)c3)no2)C1 [Compound I-204],6.30 to 7.30
11,Cc1nc(-c2ccc(C)c(NC(=O)c3cnc4ccc(N(C)C)cn34)c2)no1 [Compound I-205],≥ 7.30
